Measured values reported in US8148391B2 (Cephalon, Inc., priority 2006, dated 2012).
pIC50: −log10 of the molar value. Where two headings read alike, the source gives them in different places.

What was measured:
[1] = biological target: T1, c-Met (cytoplasmic domain) (Homo sapiens, UniProt P08581); experiment: c-Met Kinase Assay (same methods as for ALK, with modifications); type: biochemical
T1 construct: 10 ng/mL c-Met (cytoplasmic domain, Invitrogen Corporation #PV3143); purchased Invitrogen Corporation PV3143
T1 sequence (P08581 956-1390 limits assumed): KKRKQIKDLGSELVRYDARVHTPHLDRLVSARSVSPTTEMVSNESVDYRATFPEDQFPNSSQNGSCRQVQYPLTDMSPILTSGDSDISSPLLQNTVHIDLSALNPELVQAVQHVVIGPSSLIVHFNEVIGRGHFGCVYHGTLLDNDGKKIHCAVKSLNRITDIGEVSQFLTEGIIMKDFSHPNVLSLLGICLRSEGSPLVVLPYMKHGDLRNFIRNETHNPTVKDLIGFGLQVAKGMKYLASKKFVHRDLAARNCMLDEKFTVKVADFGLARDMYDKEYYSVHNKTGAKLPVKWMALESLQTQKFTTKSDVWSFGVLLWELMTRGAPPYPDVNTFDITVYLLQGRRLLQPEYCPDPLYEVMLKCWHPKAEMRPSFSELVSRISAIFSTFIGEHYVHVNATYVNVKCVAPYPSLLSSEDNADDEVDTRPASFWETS
How it was run: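 Europium-labeled PT66 antibody (Eu-N1) detects substrate phosphorylation on wells coated with phospholipase C-γ at 10 μg/mL. The kinase, the cytoplasmic domain of c-Met at 10 ng/mL, starts the reaction, which proceeds 15 minutes at 37° C.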

[2] = biological target: T2, baculovirus-expressed ALK (Homo sapiens, UniProt Q9UM73); experiment: ALK Kinase Assay (ELISA-type, time-resolved fluorescence); type: biochemical
T2 construct: host or cells: baculovirus expression system
T2 sequence (Q9UM73 19-1620): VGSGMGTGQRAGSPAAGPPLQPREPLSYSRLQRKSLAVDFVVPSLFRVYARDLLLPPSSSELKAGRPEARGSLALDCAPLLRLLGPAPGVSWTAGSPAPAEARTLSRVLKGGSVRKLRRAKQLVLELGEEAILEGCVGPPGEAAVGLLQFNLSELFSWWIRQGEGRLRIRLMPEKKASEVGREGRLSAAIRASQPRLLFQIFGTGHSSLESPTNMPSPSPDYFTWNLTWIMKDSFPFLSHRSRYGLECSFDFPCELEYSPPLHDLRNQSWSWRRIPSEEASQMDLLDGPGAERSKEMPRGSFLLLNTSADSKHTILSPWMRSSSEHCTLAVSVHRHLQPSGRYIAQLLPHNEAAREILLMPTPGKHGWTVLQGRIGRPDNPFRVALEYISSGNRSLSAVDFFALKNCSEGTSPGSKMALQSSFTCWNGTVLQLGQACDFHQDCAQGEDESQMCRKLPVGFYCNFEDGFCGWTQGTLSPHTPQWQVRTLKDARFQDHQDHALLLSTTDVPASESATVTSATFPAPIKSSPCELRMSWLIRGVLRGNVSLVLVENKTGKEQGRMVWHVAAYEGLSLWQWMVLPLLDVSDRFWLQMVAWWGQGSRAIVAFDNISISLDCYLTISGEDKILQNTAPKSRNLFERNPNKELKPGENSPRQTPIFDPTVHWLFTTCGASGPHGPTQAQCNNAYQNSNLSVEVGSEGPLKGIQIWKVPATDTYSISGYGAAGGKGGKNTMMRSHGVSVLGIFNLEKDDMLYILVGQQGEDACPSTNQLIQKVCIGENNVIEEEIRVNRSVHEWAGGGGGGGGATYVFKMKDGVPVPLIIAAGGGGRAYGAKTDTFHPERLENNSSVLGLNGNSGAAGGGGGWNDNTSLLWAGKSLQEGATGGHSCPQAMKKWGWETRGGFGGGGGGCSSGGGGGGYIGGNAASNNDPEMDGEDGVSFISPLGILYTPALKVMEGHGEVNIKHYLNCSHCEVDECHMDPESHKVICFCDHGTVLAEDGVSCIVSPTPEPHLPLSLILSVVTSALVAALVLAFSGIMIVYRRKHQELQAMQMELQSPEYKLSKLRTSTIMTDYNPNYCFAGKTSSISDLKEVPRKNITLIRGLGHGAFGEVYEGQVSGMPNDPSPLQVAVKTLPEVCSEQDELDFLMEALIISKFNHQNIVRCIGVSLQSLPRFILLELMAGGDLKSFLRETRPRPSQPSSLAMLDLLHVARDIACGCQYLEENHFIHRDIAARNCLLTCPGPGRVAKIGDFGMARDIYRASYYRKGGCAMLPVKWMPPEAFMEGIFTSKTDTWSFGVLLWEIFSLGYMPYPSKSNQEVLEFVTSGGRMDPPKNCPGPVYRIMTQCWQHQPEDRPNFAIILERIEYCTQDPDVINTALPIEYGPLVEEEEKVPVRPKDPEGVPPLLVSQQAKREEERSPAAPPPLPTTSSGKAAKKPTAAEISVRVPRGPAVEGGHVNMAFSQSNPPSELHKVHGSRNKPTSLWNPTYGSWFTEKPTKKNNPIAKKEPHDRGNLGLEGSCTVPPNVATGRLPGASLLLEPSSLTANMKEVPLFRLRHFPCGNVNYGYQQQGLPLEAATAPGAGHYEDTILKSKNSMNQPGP
How it was run: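 Plates coated with phospholipase C-γ substrate (10 μg/mL in TBS); reaction started with 30 ng/ml ALK and run 15 min at 37° C. Phosphorylated substrate detected with Eu-N1-labeled PT66 antibody. IC50 from sigmoidal variable-slope fit of percent inhibition vs log concentration.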

[3] = 1 μM ATP (Km level), 10 ng/mL c-Met, read-out: cMet Activity (c-Met kinase inhibition, IC50 class)
[4] = 1 μM ATP (Km level), 30 ng/ml ALK, 37° C., 15 minutes, read-out: ALK Activity (ALK kinase inhibition, IC50 class)
[5] = c-Met kinase inhibition, 1 μM ATP (Km level), read-out: cMet Activity
[6] = ALK kinase inhibition, 1 μM ATP (Km level), read-out: ALK Activity
[7] = 1 μM ATP (Km level), read-out: cMet Activity (c-Met Kinase Inhibition, IC50)
[8] = 1 μM ATP (Km level), read-out: ALK Activity (ALK Kinase Inhibition, IC50)
[9] = c-Met kinase inhibition, 1 μM ATP, read-out: cMet Activity
[10] = ALK kinase inhibition, 1 μM ATP, read-out: ALK Activity

pIC50 [1, 3]	pIC50 [2, 4]	pIC50 [1, 5]	pIC50 [2, 6]	Molecule	also measured
> 7.00	> 7.00	–	–	CC1(C)CCC(=O)Nc2ccc(Nc3ncc(Cl)c(Nc4c(F)cccc4C(=O)NCC#N)n3)cc21 [Example 1044, 2-[5-Chloro-2-(5,5-dimethyl-2-oxo-2,3,4,5-tetrahydro-1H-benzo[b]azepin-7-ylamino)-pyrimidin-4-ylamino]-N-cyanomethyl-3-fluoro-benzamide]	–
–	–	6.00 to 7.00	> 7.00	CN1CCCCc2cc(Nc3ncc(Cl)c(N[C@@H]4CCCC[C@H]4NS(C)(=O)=O)n3)ccc21 [Example 104, N-{(1R,2R)-2-[5-Chloro-2-(1-methyl-2,3,4,5-tetrahydro-1H-benzo[b]azepin-7-ylamino)-pyrimidin-4-ylamino]-cyclohexyl}-methanesulfonamide]	–
–	–	> 7.00	> 7.00	CN1C(=O)CCCc2cc(Nc3ncc(Cl)c(Nc4ccccc4C(=O)NCCO)n3)ccc21 [Example 6, 2-[5-Chloro-2-(1-methyl-2-oxo-2,3,4,5-tetrahydro-1H-benzo[b]azepin-7-ylamino)-pyrimidin-4-ylamino]-N-(2-hydroxy-ethyl)-benzamide]	–
< 5.00	5.00 to 6.00	–	–	CCN1CCc2ccc(OC)c(Nc3ncc(Cl)c(Nc4ccc(N5CCOCC5)cc4OC)n3)c2CC1=O [Example 1133, 9-[5-Chloro-4-(2-methoxy-4-morpholin-4-yl-phenylamino)-pyrimidin-2-ylamino]-3-ethyl-8-methoxy-1,3,4,5-tetrahydro-benzo[d]azepin-2-one]	–
–	–	< 5.00	6.00 to 7.00	CCN1C(=O)C(C)(C)CCc2c1ccc(Nc1ncc(Cl)c(Nc3ccc(N4CCOCC4)cc3OC)n1)c2OC [Example 141, 7-[5-Chloro-4-(2-methoxy-4-morpholin-4-yl-phenylamino)-pyrimidin-2-ylamino]-1-ethyl-6-methoxy-3,3-dimethyl-1,3,4,5-tetrahydro-benzo[b]azepin-2-one]	–
–	–	6.00 to 7.00	> 7.00	COCCN1CCN(C)c2ccc(Nc3ncc(Cl)c(Nc4ccccc4NS(C)(=O)=O)n3)cc2C1 [Example 429, N-(2-{5-Chloro-2-[4-(2-methoxy-ethyl)-1-methyl-2,3,4,5-tetrahydro-1H-benzo[e][1,4]diazepin-7-ylamino]-pyrimidin-4-ylamino}-phenyl)-methanesulfonamide]	–
< 5.00	> 7.00	–	–	COc1cc2c(cc1Nc1ncc(Cl)c(N[C@@H]3CCCC[C@H]3NS(C)(=O)=O)n1)CCC(N1CCOCC1)CC2 (stereo partly drawn) [Example 1051, N-{(1R,2R)-2-[5-Chloro-2-(3-methoxy-7-morpholin-4-yl-6,7,8,9-tetrahydro-5H-benzocyclohepten-2-ylamino)-pyrimidin-4-ylamino]-cyclohexyl}-methanesulfonamide]	–

Second part, the molecule before the results:

Molecule	pIC50 [1, 3]	pIC50 [2, 4]	pIC50 [1, 5]	pIC50 [2, 6]	also measured
COCCN1CCN(C)c2cc(Nc3ncc(Cl)c(N[C@@H]4CCCC[C@H]4NS(C)(=O)=O)n3)c(OC)cc2C1 [Example 490, N-((1R,2R)-2-{5-Chloro-2-[7-methoxy-4-(2-methoxy-ethyl)-1-methyl-2,3,4,5-tetrahydro-1H-benzo[e][1,4]diazepin-8-ylamino]-pyrimidin-4-ylamino}-cyclohexyl)-methanesulfonamide]	–	–	< 5.00	> 7.00	–
CCN1CCc2ccc(Nc3ncc(Cl)c(Nc4ccccc4OCC#N)n3)cc2CC1 [Example 928, {2-[5-Chloro-2-(3-ethyl-2,3,4,5-tetrahydro-1H-benzo[d]azepin-7-ylamino)-pyrimidin-4-ylamino]-phenoxy}-acetonitrile]	–	–	–	–	pIC50 [1, 7]: > 7.00; pIC50 [2, 8]: > 7.00
COCCN1CCc2ccc(Nc3ncc(Cl)c(N[C@H]4CC[C@H](N(CC#N)S(C)(=O)=O)CC4)n3)cc2CC1 [Example 1385, trans-N-(4-{5-Chloro-2-[3-(2-methoxy-ethyl)-2,3,4,5-tetrahydro-1H-benzo[d]azepin-7-ylamino]-pyrimidin-4-ylamino}-cyclohexyl)-N-cyanomethyl-methanesulfonamide]	5.00 to 6.00	6.00 to 7.00	–	–	–
CCN1C(=O)CCCc2c1ccc(Nc1ncc(Cl)c(Nc3ccc(N(C)C)cc3OC)n1)c2OC [Example 1339, 7-[5-Chloro-4-(4-dimethylamino-2-methoxy-phenylamino)-pyrimidin-2-ylamino]-1-ethyl-6-methoxy-1,3,4,5-tetrahydro-benzo[b]azepin-2-one]	< 5.00	6.00 to 7.00	–	–	–
C#CCNC(=O)c1cccc(F)c1Nc1nc(Nc2ccc3c(c2)OCC(O)(CO)CN3CC)ncc1Cl (stereo not drawn) [Example 1735, 2-[5-Chloro-2-(9-ethyl-7-hydroxy-7-hydroxymethyl-6,7,8,9-tetrahydro-5-oxa-9-aza-benzocyclohepten-3-ylamino)-pyrimidin-4-ylamino]-3-fluoro-N-prop-2-ynyl-benzamide]	–	–	–	–	pIC50 [1, 9]: 6.00 to 7.00; pIC50 [2, 10]: 6.00 to 7.00
COc1cc2c(cc1Nc1ncc(Cl)c(Nc3ccccc3S(=O)(=O)C(C)C)n1)CCN(CC(=O)N1CCCC1)CC2 [Example 1158, 2-(7-{5-Chloro-4-[2-(propane-2-sulfonyl)-phenylamino]-pyrimidin-2-ylamino}-8-methoxy-1,2,4,5-tetrahydro-benzo[d]azepin-3-yl)-1-pyrrolidin-1-yl-ethanone]	5.00 to 6.00	> 7.00	–	–	–
COCCN1CCc2ccc(Nc3ncc(C(F)(F)F)c(N[C@H]4[C@@H](C(N)=O)[C@@H]5C=C[C@H]4C5)n3)cc2CC1 [Example 934, (1S,2S,3R,4R)-3-{2-[3-(2-Methoxy-ethyl)-2,3,4,5-tetrahydro-1H-3-benzazepin-7-ylamino]-5-trifluoromethyl-pyrimidin-4-ylamino}-bicyclo[2.2.1]hept-5-ene-2-carboxylic acid amide]	–	–	–	–	pIC50 [1, 7]: > 7.00; pIC50 [2, 8]: > 7.00
CC1(C)CCC(=O)Nc2ccc(Nc3ncc(Cl)c(Nc4ccccc4-n4cccn4)n3)cc21 [Example 398, 7-[5-Chloro-4-(2-pyrazol-1-yl-phenylamino)-pyrimidin-2-ylamino]-5,5-dimethyl-1,3,4,5-tetrahydro-benzo[b]azepin-2-one]	–	–	< 5.00	> 7.00	–
COc1c(Nc2ncc(Cl)c(Nc3ccccc3S(=O)(=O)N(C)C)n2)ccc2c1CCC(NCC(F)(F)F)CC2 (stereo not drawn) [Example 684, 2-{5-Chloro-2-[1-methoxy-7-(2,2,2-trifluoro-ethylamino)-6,7,8,9-tetrahydro-5H-benzocyclohepten-2-ylamino]-pyrimidin-4-ylamino}-N,N-dimethyl-benzenesulfonamide]	–	–	–	–	pIC50 [1, 7]: < 5.00; pIC50 [2, 8]: > 7.00
(1S,2S,3R,4R)-3-{5-Chloro-2-[7-(2,2-difluoro-ethylamino)-6,7,8,9-tetrahydro-5H-benzocyclohepten-2-ylamino]-pyrimidin-4-ylamino}-bicyclo[2.2.1]hept-5-ene-2-carboxylic acid amide [Example 677]	–	–	–	–	pIC50 [1, 7]: < 5.00; pIC50 [2, 8]: > 7.00
COCCN1CCc2ccc(Nc3ncc(Cl)c(NC(C)(C)CNS(C)(=O)=O)n3)cc2CC1 [Example 306, N-(2-{5-Chloro-2-[3-(2-methoxy-ethyl)-2,3,4,5-tetrahydro-1H-benzo[d]azepin-7-ylamino]-pyrimidin-4-ylamino}-2-methyl-propyl)-methanesulfonamide]	–	–	< 5.00	6.00 to 7.00	–
CNC(=O)c1cccc(F)c1Nc1nc(Nc2ccc3c(c2)N(C(=O)N2CCCC2)CCCC3(C)C)ncc1Cl [Example 1620, 2-{5-Chloro-2-[5,5-dimethyl-1-(pyrrolidine-1-carbonyl)-2,3,4,5-tetrahydro-1H-benzo[b]azepin-8-ylamino]-pyrimidin-4-ylamino}-3-fluoro-N-methyl-benzamide]	–	–	–	–	pIC50 [1, 9]: 6.00 to 7.00; pIC50 [2, 10]: 6.00 to 7.00
COc1cc2c(cc1Nc1ncc(Cl)c(Nc3ccccc3S(=O)(=O)N3CC[C@H](O)C3)n1)CCN(CC(C)(C)O)CC2 [Example 1562, (S)-1-(2-{5-Chloro-2-[3-(2-hydroxy-2-methyl-propyl)-8-methoxy-2,3,4,5-tetrahydro-1H-3-benzazepin-7-ylamino]-pyrimidin-4-ylamino}-benzenesulfonyl)-pyrrolidin-3-ol]	–	–	–	–	pIC50 [1, 9]: 6.00 to 7.00; pIC50 [2, 10]: > 7.00
CCN1C(=O)C(N)CCc2c1ccc(Nc1ncc(Cl)c(Nc3ccccc3S(=O)(=O)N(C)C)n1)c2OC (stereo not drawn) [Example 1336, 2-[2-(3-Amino-1-ethyl-6-methoxy-2-oxo-2,3,4,5-tetrahydro-1H-benzo[b]azepin-7-ylamino)-5-chloro-pyrimidin-4-ylamino]-N,N-dimethyl-benzenesulfonamide]	< 5.00	> 7.00	–	–	–
